Measurements published in patent publication US10966426B2, “Herbicidal compositions comprising phenylpyrimidines” (BASF SE, priority 2016, dated 2021).

What was measured:
Format in all cases: in vivo
Avena fatua [1] = experiment: greenhouse pre-emergence treatment, AVEFA; conditions: Avena fatua, 504 h, 21 DAT, AVEFA, pendimethalin SC 400 g/l solo 125 gai/ha
Text: (§1) The culture containers used were plastic pots containing loamy sand with approximately 3.0% of humus as substrate. The seeds of the test plants were sown separately for each species.
(§2) For the pre-emergence treatment, the active compounds, suspended or emulsified in water, were applied directly after sowing by means of finely distributing nozzles. The containers were irrigated gently to promote germination and growth and subsequently covered with transparent plastic hoods until the plants had rooted. This cover caused uniform germination of the test plants unless this was adversely affected by the active compounds.
(§3) Depending on the species, the plants were kept at 10-25° C. and 20-35° C., respectively.
(§4) The test period extended over 2 to 4 weeks. During this time, the plants were tended and their response to the individual treatments was evaluated.
(§5) Evaluation was carried out using a scale from 0 to 100. 100 means no emergence of the plants, or complete destruction of at least the above-ground parts, and 0 means no damage or normal course of growth. A good herbicidal activity is given at values of at least 70, and very good herbicidal activity is given at values of at least 85.
(§6) The respective stated components A and B, and if appropriate, C were formulated as a 10% by weight strength emulsion concentrate and, with addition of the amount of solvent system, introduced into the spray liquor used for applying the active compound. In the examples, the solvent used was water.
(§7) In the examples below, using the method of S. R. Colby (1967) “Calculating synergistic and antagonistic responses of herbicide combinations”, Weeds 15, p. 22ff., the value E, which is expected if the activity of the individual active compounds is only additive, was calculated. E=X+Y−(X·Y/100) where X=effect in percent using herbicide A at an application rate a; • Y=effect in percent using herbicide B at application rate b; • E=expected effect (in %) of herbicide A+herbicide B at application rates a+b.

Helianthus annuus = experiment: greenhouse pre-emergence treatment, HELAN; conditions: Helianthus annuus, 504 h, 21 DAT, HELAN
Text: as §1, §2, §3, §4, §5, §6, §7

Bromus sterilis [2] = experiment: greenhouse pre-emergence treatment, BROST; conditions: Bromus sterilis, 504 h, 21 DAT, BROST
Text: as §1, §2, §3, §4, §5, §6, §7

Brachiaria decumbens = experiment: greenhouse pre-emergence treatment, BRADC; conditions: Urochloa decumbens, 504 h, 21 DAT, BRADC
Text: as §1, §2, §3, §4, §5, §6, §7

Ambrosia elatior = experiment: greenhouse pre-emergence treatment, AMBEL; conditions: Ambrosia artemisiifolia, 504 h, 21 DAT, AMBEL
Text: as §1, §2, §3, §4, §5, §6, §7

Alopecurus myosuroides = experiment: greenhouse post-emergence treatment, ALOMY; conditions: Alopecurus myosuroides, 480 h, 20 DAT, ALOMY, pendimethalin SC 400 g/l solo 125 gai/ha
Protocol: as §1
(§8) To this end, the test plants were either sown directly, and grown in the same containers, or they were first grown separately as seedlings and transplanted into the test containers a few days prior to treatment.
as §3, §4, §5
(§9) In the examples, the solvent used was water.
(§10) In the examples below, using the method of S. R. Colby (1967) “Calculating synergistic and antagonistic responses of herbicide combinations”, Weeds 15, p. […] E=X+Y−(X·Y/100) where X=effect in percent using herbicide A at an application rate a; • Y=effect in percent using herbicide B at application rate b; • E=expected effect (in %) of herbicide A+herbicide B at application rates a+b.

Avena fatua [3] = experiment: greenhouse post-emergence treatment, AVEFA; conditions: Avena fatua, sc, 480 h, 20 DAT, AVEFA
Protocol: as §1, §8, §3, §4, §5, §9, §10

Matricaria chamomilla = experiment: greenhouse post-emergence treatment, MATCH; conditions: Matricaria chamomilla, sc, 480 h, 20 DAT, MATCH
Protocol: as §1
(§11) For the post-emergence treatment, the test plants were grown to a plant height of from 3 to 15 cm, depending on the plant habit, and only then treated with the active compounds which had been suspended or emulsified in water. To this end, the test plants were either sown directly, and grown in the same containers, or they were first grown separately as seedlings and transplanted into the test containers a few days prior to treatment.
as §3, §4, §5, §6, §7

Lolium multiflorum = experiment: greenhouse post-emergence treatment, LOLMU; conditions: Lolium multiflorum, sc, 480 h, 20 DAT, LOLMU, read-out: % activity
Protocol: as §1, §8, §3, §4, §5, §9, §10

Polygonum convolvulus = experiment: greenhouse post-emergence treatment, POLCO; conditions: Fallopia convolvulus, sc, 480 h, 20 DAT, POLCO
Protocol: as §1, §11, §3, §4, §5, §6, §7

Setaria viridis = experiment: greenhouse post-emergence treatment, SETVI; conditions: Setaria viridis, sc, 480 h, 20 DAT, SETVI, pendimethalin SC 400 g/l solo 250 gai/ha, read-out: % activity
Protocol: as §1, §8, §3, §4, §5, §9, §10

Stellaria media = experiment: greenhouse post-emergence treatment, STEME; conditions: Stellaria media, sc, 480 h, 20 DAT, STEME, pendimethalin SC 400 g/l solo 500 gai/ha
Protocol: as §1, §11, §3, §4, §5, §6, §7

Digitaria sanguinalis = experiment: greenhouse post-emergence treatment, DIGSA; conditions: Digitaria sanguinalis, sc, 480 h, 20 DAT, DIGSA, pendimethalin SC 400 g/l solo 125 gai/ha, read-out: % activity
Protocol: as §1, §8, §3, §4, §5, §9, §10

Bromus sterilis [4] = experiment: greenhouse post-emergence treatment, BROST; conditions: Bromus sterilis, sc, 480 h, 20 DAT, BROST
Protocol: as §1, §8, §3, §4, §5, §9, §10

Apera spica-venti = experiment: greenhouse post-emergence treatment, APESV; conditions: solo, SC 400 g/l, APESV, 250 gai/ha, 20 DAT
Protocol: as §1, §11, §3, §4, §5, §6, §7

[5] = pendimethalin SC 400 g/l solo 125 gai/ha, read-out: % activity
[6] = pendimethalin SC 400 g/l solo 250 gai/ha
[7] = pendimethalin SC 400 g/l solo 500 gai/ha
[8] = pendimethalin SC 400 g/l solo 1000 gai/ha
[9] = pendimethalin SC 400 g/l solo 125 gai/ha

CCC(CC)Nc1c([N+](=O)[O-])cc(C)c(C)c1[N+](=O)[O-] [pendimethalin]
inhibition at 125 g/ha (Avena fatua [1]): 0% | inhibition at 100 g/ha (Helianthus annuus; pendimethalin SC 400 g/l solo 100 gai/ha): 10% | inhibition at 125 g/ha (Helianthus annuus; [5]): 0% | inhibition at 250 g/ha (Helianthus annuus; [6]): 0% | inhibition at 500 g/ha (Helianthus annuus; [7]): 10% | inhibition at 250 g/ha (Bromus sterilis [2]; pendimethalin SC 400 g/l solo 250 gai/ha, read-out: % activity): 0% | inhibition at 500 g/ha (Bromus sterilis [2]; [7]): 0% | inhibition at 1000 g/ha (Bromus sterilis [2]; [8]): 10% | % herbicidal activity (weed control, 0-100 scale) at 250 g/ha (Brachiaria decumbens; [6]): 0% | % herbicidal activity (weed control, 0-100 scale) at 500 g/ha (Brachiaria decumbens; [7]): 0% | % herbicidal activity (weed control, 0-100 scale) at 1000 g/ha (Brachiaria decumbens; [8]): 0% | percent weed control (herbicidal activity, 0-100 scale) at 250 g/ha (Ambrosia elatior; [6]): 0% | percent weed control (herbicidal activity, 0-100 scale) at 1000 g/ha (Ambrosia elatior; [8]): 0% | inhibition at 125 g/ha (Alopecurus myosuroides): 20% | inhibition at 125 g/ha (Avena fatua [3]; [5]): 0% | inhibition at 250 g/ha (Avena fatua [3]; [6]): 0% | inhibition at 500 g/ha (Avena fatua [3]; [7]): 0% | inhibition at 1000 g/ha (Avena fatua [3]; [8]): 0% | inhibition at 500 g/ha (Matricaria chamomilla; [7]): 0% | inhibition at 1000 g/ha (Matricaria chamomilla; [8]): 0% | inhibition at 125 g/ha (Lolium multiflorum; [9]): 10% | inhibition at 250 g/ha (Lolium multiflorum; [6]): 20% | inhibition at 125 g/ha (Polygonum convolvulus; [9]): 40% | inhibition at 500 g/ha (Polygonum convolvulus; [7]): 60% | inhibition at 250 g/ha (Setaria viridis): 50% | inhibition at 500 g/ha (Stellaria media): 70% | inhibition at 125 g/ha (Digitaria sanguinalis): 45% | inhibition at 125 g/ha (Bromus sterilis [4]; [9]): 0% | inhibition at 250 g/ha (Bromus sterilis [4]; [6]): 0% | inhibition at 500 g/ha (Bromus sterilis [4]; [7]): 0% | inhibition at 1000 g/ha (Bromus sterilis [4]; [8]): 0% | % activity (Apera spica-venti): 0%
